Measurements published in US20260272920A1, “NLRP3 MODULATORS” (Zomagen Biosciences Ltd, priority 2023, published 2026).

The compounds below were run on NLRP3 (assay: IL-1β Assay in THP1 Cells (LPS priming + nigericin, NLRP3 activation)). Conditions: Homo sapiens, THP-1; THP1 cells primed with 100 ng/mL LPS, 10 μM nigericin 3 hours; IL-1β released in supernatant; read-out: IL-1b (IC50).
Format: cell-based
Procedure: Example 10: IL-1β Assay in THP1 Cells
THP1 cells were primed with 100 ng/mL LPS in test medium (RPMI1640+GlutaMAX+25 mM HEPES+10% HI FBS+1% Pen/Strep) overnight at 37° C. and 5% CO2. Compounds were serially diluted in test medium and added to 200 000 cells/well for 1 hour at 37° C. and 5% CO2. After 1 hour, nigericin was added at 10 μM final concentration and incubated in at 37° C. and 5% CO2 for 3 hours to induce NLRP3 activation. IL-1β released from THP1 was detected in the cell supernatant by the ELLA (Simple Plex, Bio-Techne) Human IL-1β Immunoassays. The average of the positive control (LPS+nigericin) and the negative control (LPS alone) was calculated. The % inhibition of each test well was calculated by the following formula: % inhibition per well=[(average of positive control−single well signal value)/(average of positive control−average of negative control)]*100%. The compound inhibition curve was fitted by using a four-parameter logistic dose response equation: compound concentration was converted into logarithm base 10, and its concentration and % inhibition is imported into Graphpad prism software.

| Structure (SMILES) | IC50 [nM] |
| --- | --- |
| Cc1cc([C@H](O)[C@@H]2CCCN(C)C2)nnc1-c1ccc(C(F)(F)F)cc1OC(F)F [Compound 31, (R)-(6-(2-(difluoromethoxy)-4-(trifluoromethyl)phenyl)-5-methylpyridazin-3-yl)((R)-1-methylpiperidin-3-yl)methanol] | < 500 |
| CCN1CCCC(C(O)c2cc(C)c(-c3ccc4c(F)c[nH]c4c3)nn2)C1 (stereo not drawn) [Compound 10, (1-ethylpiperidin-3-yl)(6-(3-fluoro-1H-indol-6-yl)-5-methylpyridazin-3-yl)methanol] | < 500 |
| CCN1CCCC(C(O)c2cc(C)c(-c3ccc4occc4c3)nn2)C1 (stereo not drawn) [Compound 17, (6-(benzofuran-5-yl)-5-methylpyridazin-3-yl)(1-ethylpiperidin-3-yl)methanol] | < 500 |
| CCN1CCC[C@@H]([C@@H](O)c2cc(C)c(-c3ccc(C(F)(F)F)cc3OC(F)F)nn2)C1 [Compound 33, (R)-(6-(2-(difluoromethoxy)-4-(trifluoromethyl)phenyl)-5-methylpyridazin-3-yl)((R)-1-ethylpiperidin-3-yl)methanol] | < 500 |
| CCN1CCCC(C(O)c2cc(C)c(-c3ccc4cc[nH]c4c3)nn2)C1 (stereo not drawn) [Compound 12, (6-(1H-indol-6-yl)-5-methylpyridazin-3-yl) (1-ethylpiperidin-3-yl) methanol] | < 500 |
| Cc1cc(C(O)C2CCCN(C)C2)nnc1-c1ccc2occc2c1 (stereo not drawn) [Compound 16, (6-(benzofuran-5-yl)-5-methylpyridazin-3-yl)(1-methylpiperidin-3-yl)methanol] | < 500 |
| Cc1cc(C(O)C2CCCN(C)C2)nnc1-c1ccc(C(F)(F)F)cc1CC(F)(F)F (stereo not drawn) [Compound 21, (5-methyl-6-(2-(2,2,2-trifluoroethyl)-4-(trifluoromethyl)phenyl)pyridazin-3-yl)(1-methylpiperidin-3-yl)methanol] | 500 to 3000 |
| CCN1CCC[C@@H]([C@@H](O)c2cc(C)c(-c3ccc(C(F)(F)F)cc3)nn2)C1 [Compound 29, (R)-((R)-1-ethylpiperidin-3-yl)(5-methyl-6-(4-(trifluoromethyl)phenyl)pyridazin-3-yl)methanol] | < 500 |
| Cc1cc([C@H](O)[C@@H]2CCCN(C)C2)nnc1-c1ccc(C(F)(F)F)cc1 [Compound 28, (R)-(5-methyl-6-(4-(trifluoromethyl)phenyl)pyridazin-3-yl)((R)-1-methylpiperidin-3-yl)methanol] | 500 to 3000 |
